According to patent US20080113956A1, “Substituted Porphyrins” (priority 1997, published 2008):

Legend:
DNA = assay: SOD activity in vitro in the presence of DNA (DNA interaction); format: biochemical
Text: The “ortho effect” also decreases the toxicity. It is well known that porphyrins, and particularly cationic porphyrins, interact with DNA and can act as DNA cleavers. This fact can be an issue in the use of metallo-porphyrins as anti-tumor drugs. The present mimetics avoid this interaction.
In order to maximize the decrease in toxicity due to interaction with DNA, two derivatives of the ortho compound have been prepared which carry four ethyl or four butyl groups (“4” and “5”, respectively).

[1] = Water solubility of the chloride salt; format: physicochemical; settings: micelles were not observed
Experimental: The same procedure described above was used. 0.92 mL of 1-iodobutane (100 eq) was added and the mixture stirred at 100° C. for 7 days. […] The elemental analysis was thus performed on the hexafluorophosphate salt (non-viscous). The chlorine salt is water-soluble (micelles were not observed). UV(H2O) of the chloride salt, ε454.0 1.21×10^5 M^−1cm^−1. Elemental analysis, calcd. For MnC56H60N8P5F30.H2O: C (40.94), H (3.80), N (6.82); found: C (41.15), H (4.35), N (6.52).

[2] = SOD-like activity in vitro (xanthine/xanthine oxidase, ferricytochrome c; McCord and Fridovich); format: biochemical; settings: Example VII
Experimental: (§1) SOD activity can be monitored in the presence and absence of EDTA using the method of McCord and Fridovich (J. Biol. Chem. 244:6049 (1969)). The efficacy of a mimetic can also be determined by measuring the effect of the mimetic on the aerobic growth of a SOD null E. coli strain versus a parental strain lacking the specific mutations. Specifically, parental E. coli (AB1157) and SOD null E. coli. (JI132) can be grown in M9 medium containing 0.2% casamino acids and 0.2% glucose at pH 7.0 and 37° C.; growth can be monitored in terms of turbidity followed at 700 nm.
The superoxide dismutase activity of the mimetics of the invention depends on a number of factors, including thermodynamic factors (eg the metal-centered redox-potential see FIG. 1)), and kinetic factors (eg electrostatic facilitation).
Superoxide dismuting activity. The SOD-like activities were measured using the xanthine/xanthine oxidase system as a source of O2^− and ferricytochrome c as its indicating scavenger (McCord et al, J. Biol. Chem. 244:6049 (1969)). O2— was produced at the rate of 1.2 μM per minute and reduction of ferricytochrome c was followed at 550 nm. Assays were conducted in presence of 0.1 mM EDTA in 0.05 M phosphate buffer (pH 7.8). Rate constants for the reaction of the compounds were based upon competition with […] cytochrome c, kcyt c=2.6×10^5 M^−1s^−1 (Butler et al, J. Biol. Chem. 257:10747 (1982)). All measurements were done at 25° C. Cytochrome c concentration was at least 10^3-fold higher than the concentrations of the SOD mimics and the rates were linear for at least two minutes, during which the compounds intercepted ˜100 equivalents of O2^−, thus confirming the catalytic nature of O2^− dismutation in presence of the mimics.
Superoxide dismuting activities. SOD-like activities were measured as described previously, based on competition with cytochrome c (McCord et al, J. Biol. Chem. 244:6049 (1969)). MnClxTE-2-PyP^5+ SOD-like activities are reported in Table 5, IC50 (M) representing the concentration for one unit of activity (or the concentration that causes 50% inhibition of cytochrome c reduction by O2^−) and kcat (M^−1s^−1) representing the rate constant for the superoxide dismutation reaction. The SOD-like activity per mole of MnCl4TE-2-PyP^5 is approximately 2-, 7- and 100-fold higher than MnOBTMPyP^4+, MnTM-2-PyP^5+ and MnTM-4PyP^5+, respectively (Faulkner et al, J. Biol. Chem. 269:23471 (1994); Batinic-Haberle et al, Arch. Biochem. Biophys. 343:225 (1997); Batinic-Haberle et al, J. Biol. Chem. 273:24521 (1998)). The SOD-like activity of MnCl4TE-2-PyP^5+ represents 20% of the activity of the Cu,Zn-SOD enzyme on a molar basis (40% per active site considering that the enzyme has two active sites) (Klug-Roth et al, J. Am. Chem. Soc. 95:2786 (1973)).

[3] = Electrochemistry: metal-centered redox potential; format: physicochemical; settings: vs NHE; listed as 2
Experimental: Electrochemistry. The electrochemical characterization was performed as described previously on a Voltammetric Analyzer Model 600 (CH instrument) using a glassy carbon electrode (Ag/AgCl reference and Pt auxiliary electrodes), at 0.5 mM porphyrin, pH 7.8 (0.05 M phosphate buffer), 0.1 M NaCl. The potentials were standardized against potassium ferricyanide/potassium ferrocyanide couple (Batinic-Haberle et al, Arch. Biochem. Biophys. 343:225 (1997); Kolthof et al, J. Phys. Chem. 39:945 (1974)).
Electrochemistry. The metal-centered redox behavior of all metalloporphyrin products was reversible. The half-wave potentials (E^O1/2) were calculated as the average of the cathodic and anodic peaks and are given in mV vs NHE (Table 5). The average shift per chlorine is +55 mV (Table 5), which is in agreement with the values previously reported for H2TPP derivatives (between −50 and +70 mV) (Sen et al, Chem. Soc. Faraday Trans. 93:4281 (1997); Autret et al. J. Chem. Soc. Dalton Trans. 2793 (1996); Hariprasad et al, J. Chem. Soc. Dalton Trans. 3429 (1996); Tagliatesta et al, Inorg. Chem. 35:5570 (1996); Ghosh, J. Am. Chem. Soc. 117:4691 (1995); Takeuchi et al, J. Am. Chem. Soc. 116:9730 (1994); Binstead et al, Inorg. Chem. 30:1259 (1991); Giraudeau et al, J. Am. Chem. Soc. 101:3857 (1979)). This shift appears to be higher (˜+65 mV) between 0 and 1, and between 2 and 3 chlorines (Table 5). […] The manganese redox state of MnCl4TE-2-PyP^5 (E^O1/2=+448 mV) and MnOBTMPyP^4+ (E^O1.2=+480 mV) is 3+ and 2+, respectively. This difference may be explained by their difference in terms of redox potential (˜30 mV) but also by structural considerations, for instance an increased distortion of the porphyrin ring in the case of MnOBTMPyP^4+. (Batinic-Haberle et al, Arch. Biochem. Biophys. 343:225 (1997); Ochsenbein et al, Angew. Chem. Int. Ed. Engl. 33:348 (1994)).

SOD null E. coli (JI132) = assay: Aerobic growth of SOD null E. coli strain versus parental strain; format: cell-based
Experimental: FIG. 3. SOD activity in vivo (E. coli) of 1, 2, 3* and 4* (20 μM) in minimal medium (mixture of atropoisomers, JI=SOD deficient strain, AB parental strain).
as §1
The activity in vivo of the mimetics of the invention can be tested on an E. coli strain deleted of the genes coding for both the MnSOD and FeSOD. In this assay, the efficacy of a mimetic is determined by measuring the effect of the mimetic on the aerobic growth of a SOD null E. coli strain versus a parental strain. Specifically, parental E. coli (AB1157) and SOD null E. coli. (JI132) are grown in M9 medium containing 0.2% casamino acids and 0.2% glucose at pH 7.0 and 37° C.; growth is monitored in terms of turbidity followed at 700 nm.

Compound	toxicity due to interaction with DNA, comparison between ortho derivatives (DNA; Table 2 and FIG. 3)	solubility in water [1]	rate of dismutation (kcat) [2] [M⁻¹ s⁻¹]	interaction with DNA (DNA; SOD activity in vitro in the presence of DNA)	E1/2 one-electron metal-centered redox-potential [3]	aerobic growth (A700) of SOD null E. coli cells (SOD null E. coli (JI132); 20 μM, glucose minimal medium (M9) plus 5 essential amino acids, JI132, listed as 2)	toxicity in vivo (E. coli) (SOD null E. coli (JI132); FIG. 3)
CCCC[n+]1ccccc1-c1c2nc(c(-c3cccc[n+]3CCCC)c3ccc([n-]3)c(-c3cccc[n+]3CCCC)c3nc(c(-c4cccc[n+]4CCCC)c4ccc1[n-]4)C=C3)C=C2.[Mn+3] [compound 5, manganic meso-tetrakis-(N-butylpyridinium-2-yl)porphyrin]	did not show a further decrease in toxicity	water-soluble	–	–	–	–	–
manganese(III) 5,10,15,20-tetrakis(N-methylpyridyl)porphyrin [MnTM-3-PyP^5+]	–	–	4.1e+06	greatly decreased	+0.042 V	increase in A700	decreased toxicity
